{
  "source": "paper PMC1796864",
  "about": "“Crystal structure of AFV3-109, a highly conserved protein from crenarchaeal viruses” (Virology Journal, 2007)",
  "molecular_target": "T1, AFV3-109 (Betalipothrixvirus acidiani, UniProt A7WKA5)",
  "T1 construct": "homodimer in solution and crystal",
  "experiment": "tryptophan fluorescence quenching titration",
  "assay_type": "binding",
  "conditions": "read-out: KDapp",
  "data": [
    {"smiles": "OCC(O)CO", "note": "[glycerol]", "values": [
      {"measurement": "Kd", "value": 1700, "unit": "nM"}
    ]}
  ]
}
